In US20260286297A1, “METHOD FOR PRODUCING GROUP 2 INNATE LYMPHOID CELLS” (KYOTO UNIVERSITY, priority 2023, published 2026):

What was measured:
[1] = tested on: hematopoietic precursor cells (derived from iPS cell line 1231A2); experiment: Differentiation induction from iPS cell-derived HPCs to ILC2s, flow cytometry (Experiments 2 and 4); assay type: cell-based, human; settings: line 1231A2 HPCs; for induction of ILC2-like cell populations (lineage marker-negative, GATA3-expressing, capacity to produce IL-13): CDK8 inhibitor in medium B Day 6-12 (Senexin A 3 μM; CCT-251921 100 nM), flow cytometry after 12 days; for differentiation induction into ILC2-like cells containing IL-10-producing cells: Condition 2 plus CDK8 inhibitor in medium B Day 6-12 (Compounds 1-3 1 μM, Compound 4 10 μM)
Method: The HPCs prepared from the iPS cells in Experiment 1 were cultured to be differentiation-induced into ILC2s. Specifically, 2500 to 20000 HPC stock cells prepared from the line 1231A2 were seeded in a 96-well plate (Corning, 3799 or Iwaki, 3860-096) coated with 2.5 μg/mL Fc-DLL4 and 2.5 μg/mL RetroNectin™ (Day 0) and cultured at 37° C. in a 5% CO2 atmosphere under the medium conditions shown below for 12 days to be differentiation-induced. In the differentiation induction culture for 12 days, 100 μL of medium was added on Day 3, followed by medium replacement on Day 6 and Day 9. If the cells in each culture well are confluent after the medium replacement on Day 6 and Day 9, the cells in the well were suspended, 2-fold diluted, and reseeded in a new 96-well plate. In the cases of Conditions 2 to 4, IL-2 (BioLegend, 589108 or PeproTech, 200-02) was added to medium A at 200 U/mL. In the case of Condition 3, Senexin A (Selleck, S8520) was added to medium B at 3 μM as CDK8 inhibitor. In the case of Condition 4, CCT-251921 (MedChemExpress, HY-19984) was added to medium B at 100 nM as CDK8 inhibitor. The differentiated cells cultured as described above were stimulated at 37° C. in a 5% CO2 atmosphere for 4 to 6 hours using the following: • IL-1β (PeproTech, 200-01B), final concentration: 10 ng/ml. • IL-2, final concentration: 20 ng/ml. • IL-7, final concentration: 50 ng/ml. • IL-23 (BioLegend, 574106), final concentration: 20 ng/ml • IL-25 (IL-17E) (PeproTech, 200-24), final concentration: 20 ng/ml • eBioscience™ Cell Stimulation Cocktail (plus Protein transport inhibitor) (Thermo Fisher Scientific, 00-4975-03) The stimulated cells were subsequently stained and analyzed with an LSRFortessa™ Cell Analyzer (BD Biosciences) by flow cytometry. […] The present experiment confirmed the differentiation induction into ILC2s using multiple CDK8 inhibitors having different structures.

[2] = tested on: HPCs derived from the line Ff-101s04; experiment: Differentiation induction from iPS cell-derived HPCs to ILC2s, different iPS cell line (Experiment 3); assay type: cell-based, human; settings: HPCs from iPS line Ff-101s04; Condition 3 (3 μM Senexin A), Condition 4 (100 nM CCT-251921)
[3] = tested on: iPS cell-derived HPCs differentiation culture; experiment: Concentrations of cytokines in differentiation culture supernatant containing iPS cell-derived ILC2s (Experiment 6); assay type: cell-based, human; settings: Day 12 culture supernatant; Condition 3 versus Conditions 1 and 2
From the text: The culture supernatant of Day 12 of the culture was collected that was differentiation-induced under “Condition 1”, “Condition 2”, and “Condition 3” described in Experiment 2, followed by the quantification of concentrations of IL-10, IL-5, and amphiregulin in the culture supernatant with the following kits, respectively. Amphiregulin is a cytokine that plays a central role in the capacity of ILC2s to repair tissue. It is conceivable that ILC2s having the capacity to repair tissue were obtained in the case where amphiregulin increased in concentration. • IL-10: Human IL-10 immunoassay kit (PerkinElmer, AL218C) • IL-5: Human IL-5 immunoassay kit (PerkinElmer, AL267C) • Amphiregulin: Human Amphiregulin Quantikine ELISA Kit (R&D Systems, DAR00)
IL-10 and IL-5 were measured with an Envision (Revvity). Amphiregulin was measured with a Powerscan4 (DS pharma biomedical Co., LTD.).

[4] = tested on: human cord blood-derived CD34-positive cells; experiment: Differentiation induction from human cord blood-derived CD34-positive HPCs to ILC2s (Experiment 5); assay type: cell-based; settings: Condition 3 (3 μM Senexin A), flow cytometry on Day 19
From the text: In order to ascertain the versatility of the method for differentiation induction in Experiment 2, the present experiment confirmed the differentiation induction from HPCs derived from the human body to ILC2s. Specifically, ILC2s were differentiation-induced by culturing purchased human cord blood-derived CD34-positive cells (Lonza, 2C-101) with the methods of Condition 1, Condition 2, and Condition 3 in Experiment 2. In the present experiment, the medium was also replaced with the same medium as on Days 6 to 12 on Day 12 and Day 15 of the culture, and the cells in each culture well were 2-fold diluted and reseeded in the case where the cells in the culture well were confluent.

| SMILES | induction of ILC2-like cell populations (lineage marker-negative, GATA3-expressing, capacity to produce IL-13) [1] | differentiation induction into ILC2-like cells containing IL-10-producing cells [1] | differentiation induction of ILC2-like cells containing IL-10-producing cells [2] | production of IL-5 in the culture supernatant [3] | production of IL-10 in the culture supernatant [3] | production of amphiregulin in the culture supernatant [3] | capacity of the induced ILC2-like cells to produce IL-10 ([1]; Condition 3, 3 μM Senexin A in medium B Day 6-12) | differentiation induction of ILC2-like cells containing IL-10-producing cells [4] |
| --- | --- | --- | --- | --- | --- | --- | --- | --- |
| Cn1ncc2cc(-c3cnc(N)c(Cl)c3N3CCC4(CCNC4=O)CC3)ccc21 [CCT-251921] | ILC2-like cell populations were induced | observed | ILC2-like cells containing IL-10-producing cells were differentiation-induced | – | – | – | – | – |
| N#Cc1ccc2ncnc(NCCc3ccccc3)c2c1 [Senexin A] | ILC2-like cell populations were induced | observed | ILC2-like cells containing IL-10-producing cells were differentiation-induced | enhancement of production | enhancement of production | enhancement of production | had the capacity to produce IL-10 | ILC2-like cells containing IL-10-producing cells were differentiation-induced |
